In patent publication US9255100B2 (BAYER INTELLECTUAL PROPERTY GMBH, priority 2010, dated 2016):

Target: T1, N-terminally GST-tagged human full length recombinant Mps-1 kinase (Homo sapiens, UniProt P33981)
T1 construct: N-terminally GST-tagged human full length recombinant Mps-1 kinase; purchased Invitrogen, Karslruhe, Germany PV4071
T1 sequence (P33981 1-857): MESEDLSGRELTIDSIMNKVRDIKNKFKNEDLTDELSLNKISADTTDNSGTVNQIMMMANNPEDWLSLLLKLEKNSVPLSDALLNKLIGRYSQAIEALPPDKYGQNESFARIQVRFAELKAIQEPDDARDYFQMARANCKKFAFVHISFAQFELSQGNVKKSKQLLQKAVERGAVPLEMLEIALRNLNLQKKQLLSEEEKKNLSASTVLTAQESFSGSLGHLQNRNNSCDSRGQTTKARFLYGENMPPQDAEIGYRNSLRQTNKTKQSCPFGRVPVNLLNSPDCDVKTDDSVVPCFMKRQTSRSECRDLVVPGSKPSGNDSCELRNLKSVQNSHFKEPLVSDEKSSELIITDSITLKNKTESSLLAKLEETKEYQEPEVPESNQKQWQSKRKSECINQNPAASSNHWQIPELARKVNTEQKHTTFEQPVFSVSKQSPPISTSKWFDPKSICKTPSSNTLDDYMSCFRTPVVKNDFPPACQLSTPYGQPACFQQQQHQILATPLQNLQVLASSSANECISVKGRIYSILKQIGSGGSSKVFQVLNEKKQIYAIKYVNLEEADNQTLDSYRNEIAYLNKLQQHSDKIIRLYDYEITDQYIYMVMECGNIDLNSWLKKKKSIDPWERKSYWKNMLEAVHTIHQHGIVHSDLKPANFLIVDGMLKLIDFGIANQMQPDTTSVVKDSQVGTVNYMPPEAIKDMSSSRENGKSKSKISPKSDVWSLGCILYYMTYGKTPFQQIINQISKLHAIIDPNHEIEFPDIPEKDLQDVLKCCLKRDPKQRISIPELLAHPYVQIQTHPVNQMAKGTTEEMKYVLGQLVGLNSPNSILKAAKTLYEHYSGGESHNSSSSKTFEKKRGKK
Assay: Mps-1 kinase assay (TR-FRET)
Type: biochemical
Settings: Mps1 IC50 [nM], 10 μM ATP, 1 μM peptide substrate, 60 min at 22° C.
How it was run: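 TR-FRET signal between a Europium anti-phospho-Ser/Thr antibody and streptavidin-XLent reported phosphorylation of a biotinylated peptide by GST-tagged full-length Mps-1. Enzyme was near 1 nM final, chosen per lot for linearity.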

Row | Compound | IC50 [nM]
1 | Cc1cc(-c2cnc3c(NCC(C)(C)O)cc(Oc4ccc5ncccc5c4)nn23)ccc1C(=O)NC1CC1 [Example 168, N-cyclopropyl-4-{8-[(2-hydroxy-2-methylpropyl)amino]-6-(quinolin-6-yloxy)imidazo[1,2-b]pyridazin-3-yl}-2-methylbenzamide] | 0.3
2 | Cc1cc(-c2cnc3c(NCC4CCC(C)(O)CC4)cc(-c4ccccc4CO)nn23)ccc1C(=O)NC1CC1 (centres unmarked) [Example 340, N-cyclopropyl-4-(8-{[(4-hydroxy-4-methylcyclohexyl)methyl]amino}-6-[2-(hydroxymethyl)phenyl]imidazo[1,2-b]pyridazin-3-yl)-2-methylbenzamide] | 3.3
3 | Cc1cc(-c2cnc3c(NCCC(F)(F)F)cc(Oc4ccccc4N)nn23)ccc1C(=O)NC1CC1 [Example 395, 4-{6-(2-aminophenoxy)-8-[(3,3,3-trifluoropropyl)amino]imidazo[1,2-b]pyridazin-3-yl}-N-cyclopropyl-2-methylbenzamide] | 0.3
4 | Cc1cc(-c2cnc3c(NCCC(F)(F)F)cc(Nc4ccccc4F)nn23)ccc1C(=O)NC1CC1 [Example 369, N-cyclopropyl-4-{6-[(2-fluorophenyl)amino]-8-[(3,3,3-trifluoropropyl)amino]imidazo[1,2-b]pyridazin-3-yl}-2-methylbenzamide] | 0.1
5 | COc1c(Oc2cc(NCCC(F)(F)F)c3ncc(-c4ccc(C(=O)NC5CC5)c(C)c4)n3n2)cccc1C(C)C [Example 418, N-cyclopropyl-4-{6-[2-methoxy-3-(propan-2-yl)phenoxy]-8-[(3,3,3-trifluoropropyl)amino]imidazo[1,2-b]pyridazin-3-yl}-2-methylbenzamide] | 1.2
6 | Cc1cc(-c2cnc3c(NCCCO)cc(-c4ccnn4C)nn23)ccc1C(=O)NC1CC1 [Example 211, N-cyclopropyl-4-{8-[(3-hydroxypropyl)amino]-6-(1-methyl-1H-pyrazol-5-yl)imidazo[1,2-b]pyridazin-3-yl}-2-methylbenzamide] | 5.8
7 | CNC(=O)c1ccc(-c2cnc3c(NCCOC)cc(Oc4ccc(OC)cc4F)nn23)cc1C [Example 584, 4-{6-(2-fluoro-4-methoxyphenoxy)-8-[(2-methoxyethyl)a-mino]imidazo[1,2-b]pyridazin-3-yl}-N,2-dimethylbenzamide] | 2.3
8 | CSc1cc(NCC(C)C)c2ncc(-c3ccc(C(=O)NC4CC4)c(C)c3)n2n1 [Example 196, N-cyclopropyl-2-methyl-4-{8-[(2-methylpropyl)amino]-6-(methylsulfanyl)imidazo[1,2-b]pyridazin-3-yl}benzamide] | 2.7
9 | Cc1cc(-c2cnc3c(NCC(C)(C)O)cc(Nc4ccc(F)nc4)nn23)ccc1C(=O)NC1CC1 [Example 406, N-cyclopropyl-4-{6-[(6-fluoropyridin-3-yl)amino]-8-[(2-hydroxy-2-methylpropyl)amino]imidazo[1,2-b]pyridazin-3-yl}-2-methylbenzamide] | 0.4
10 | Cc1cc(-c2cnc3c(NCC(C)(C)O)cc(Oc4ccc(F)cc4)nn23)ccc1C(=O)NC1CC1 [Example 253, N-cyclopropyl-4-{6-(4-fluorophenoxy)-8-[(2-hydroxy-2-methylpropyl)amino]imidazo[1,2-b]pyridazin-3-yl}-2-methylbenzamide] | 0.3
11 | CNc1ccccc1Oc1cc(NCCN2CCOCC2)c2ncc(-c3ccc(C(=O)NC4CC4)c(C)c3)n2n1 [Example 538, N-cyclopropyl-2-methyl-4-(6-[2-(methylamino)phenoxy]-8-{[2-(morpholin-4-yl)ethyl]amino}imidazo[1,2-b]pyridazin-3-yl)benzamide] | 0.8
12 | Cc1cc(-c2cnc3c(NCCC(F)(F)F)cc(Oc4cccc(F)c4F)nn23)ccc1C(=O)NC1CC1 [Example 258, N-cyclopropyl-4-{6-(2,3-difluorophenoxy)-8-[(3,3,3-trifluoropropyl)amino]imidazo[1,2-b]pyridazin-3-yl}-2-methylbenzamide] | 0.2
13 | CC(C)CNc1cc(-c2ccc(NC(=O)N(C)C)cc2)nn2c(-c3ccc(C(=O)NC4CC4)cc3)cnc12 [Example 150, N-cyclopropyl-4-(6-{4-[(dimethylcarbamoyl)amino]phenyl}-8-[(2-methylpropyl)amino]imidazo[1,2-b]pyridazin-3-yl)benzamide] | 3.7
14 | Cc1cc(-c2cnc3c(NCC(C)(C)O)cc(SC4CCCCC4)nn23)ccc1C(=O)NC1CC1 [Example 172, 4-{6-(cyclohexylsulfanyl)-8-[(2-hydroxy-2-methylpropyl)amino]imidazo[1,2-b]pyridazin-3-yl}-N-cyclopropyl-2-methylbenzamide] | 0.8
15 | Cc1cc(-c2cnc3c(NCCC(F)(F)F)cc(-c4ccncc4)nn23)ccc1C(=O)NC1CC1 [Example 228, N-cyclopropyl-2-methyl-4-{6-(pyridin-4-yl)-8-[(3,3,3-trifluoropropyl)amino]imidazo[1,2-b]pyridazin-3-yl}benzamide] | 0.6
16 | Cc1cc(-c2cnc3c(NCCC(F)(F)F)cc(Oc4ccc5ncccc5c4)nn23)ccc1C(=O)NC1CC1 [Example 169, N-cyclopropyl-2-methyl-4-{6-(quinolin-6-yloxy)-8-[(3,3,3-trifluoro-propyl)amino]imidazo[1,2-b]pyridazin-3-yl}benzamide] | 0.1
17 | C/C=C(\C)c1cc(NCCC(F)(F)F)c2ncc(-c3ccc(-c4cnc(C5CC5)[nH]4)cc3)n2n1 [Example 27, 6-[(2E)-But-2-en-2-yl]-3-[4-(2-cyclopropyl-1H-imidazol-5-yl)phenyl]-N-(3,3,3-trifluoropropyl)imidazo[1,2-b]pyridazin-8-amine] | 33.2
18 | Cn1nccc1-c1cc(NCCC(F)(F)F)c2ncc(-c3ccc(C(=S)NC4CC4)cc3)n2n1 [Example 45, N-cyclopropyl-4-{6-(1-methyl-1H-pyrazol-5-yl)-8-[(3,3,3-trifluoropropyl)amino]imidazo[1,2-b]pyridazin-3-yl}benzenecarbothioamide] | 1.1
19 | COc1cc(C(=O)NC2CC2)ccc1-c1cnc2c(NCC(C)(C)O)cc(Sc3ccccc3)nn12 [Example 51A, N-cyclopropyl-4-{8-[(2-hydroxy-2-methylpropyl)amino]-6-(phenylsulfanyl)imidazo[1,2-b]pyridazin-3-yl}-3-methoxybenzamide] | 58
20 | CC(C)(O)CNc1cc(Oc2cccc(F)c2)nn2c(-c3ccc(C(=S)NC4CC4)cc3)cnc12 [Example 244, N-cyclopropyl-4-{6-(3-fluorophenoxy)-8-[(2-hydroxy-2-methylpropyl)amino]imidazo[1,2-b]pyridazin-3-yl}benzenecarbothioamide] | 0.3
21 | CC(C)CNc1cc(Cl)nn2c(-c3ccc(-c4cnc(C5CC5)[nH]4)cc3)cnc12 [Example 184, 6-Chloro-3-[4-(2-cyclopropyl-1H-imidazol-5-yl)phenyl]-N-(2-methylpropyl)imidazo[1,2-b]pyridazin-8-amine] | 101
22 | Cc1cc(-c2cnc3c(NCC(C)(C)O)cc(SCCN4CCOCC4)nn23)ccc1C(=O)NC1CC1 [Example 239, N-cyclopropyl-4-(8-[(2-hydroxy-2-methylpropyl)amino]-6-{[2-(morpholin-4-yl)ethyl]sulfanyl}imidazo[1,2-b]pyridazin-3-yl)-2-methylbenzamide] | 25.5
23 | Cc1cc(-c2cnc3c(NCC(C)(C)O)cc(OCc4ccccc4)nn23)ccc1C(=O)NC1CC1 [Example 326, 4-{6-(benzyloxy)-8-[(2-hydroxy-2-methylpropyl)amino]imidazo[1,2-b]pyridazin-3-yl}-N-cyclo-propyl-2-methylbenzamide] | 1.9
24 | Cc1ccc(Cc2cc(NCCC(F)(F)F)c3ncc(-c4ccc(C(=O)NC5CC5)c(C)c4)n3n2)cc1F [Example 484, N-cyclopropyl-4-{6-(3-fluoro-4-methylbenzyl)-8-[(3,3,3-tri-fluoropropyl)amino]imidazo [1,2-b]pyridazin-3-yl}-2-methylbenzamide] | 0.3
25 | CCCSc1cc(NCC(C)C)c2ncc(-c3ccc(C(=O)NC4CC4)c(C)c3)n2n1 [Example 201, N-cyclopropyl-2-methyl-4-{8-[(2-methylpropyl)amino]-6-(propylsulfanyl)imidazo[1,2-b]pyridazin-3-yl}benzamide] | 2.3
26 | Cc1cc(-c2cnc3c(NCCC(F)(F)F)cc(Cc4cccc(Br)c4)nn23)ccc1C(=O)NC1CC1 [Example 485, 4-{6-(3-bromobenzyl)-8-[(3,3,3-trifluoropropyl)amino]imidazo [1,2-b]pyridazin-3-yl}-N-cyclo-propyl-2-methylbenzamide] | 0.4
